Results reported in ChEMBL document CHEMBL1201862, “PubChem BioAssay data set” (2004).
Active and inactive are the calls of the source.

Columns and labels:
[1] = biological target: Cytochrome P450 3A4 (Homo sapiens, UniProt P08684);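 also: CYP3A4 tested as one member of a cytochrome P450 panel screen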
[2] = biological target: Beta-galactosidase (Escherichia coli, UniProt Q8VNN2); test: PubChem AID 485352; assay type: functional
[3] = biological target: Type-1 angiotensin II receptor (Homo sapiens, UniProt P30556); test: AT1 receptor antagonists, dose response, selectivity assay for APJ receptor antagonist project, cell-based, uHTS hits (AID 463214); assay type: functional;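 also: antagonist potency against angiotensin II stimulated AT1 response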
[4] = biological target: T1, Luciferin 4-monooxygenase (Photinus pyralis, UniProt P08659); test: Counter Screen for Luciferase-based Assay Positives. [Related pubchem assays: 620, 618, 411 ]
[5] = test system: HT-1080; test: cytotoxicity in HT1080 fibrosarcoma cells, cell-based, fluorescence readout (AID 620); assay type: functional; conditions: Homo sapiens
[6] = test system: Jurkat; test: antigen receptor-induced NF-kB inhibitors, dose response, Jurkat, luciferase reporter, luminescence, B- and T-cell (AID 489004); assay type: functional, cell-based; conditions: Homo sapiens;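 also: NF-kB luciferase reporter Jurkat cells stimulated with PMA plus ionomycin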
[7] = cytotoxicity in HEK-293T NF-kB-Luc cells, dose response, cytotoxicity control for B/T-cell NF-kB inhibitor project, cell-based, uHTS hits (AID 489019); assay type: functional;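 also: IC50 reflects cytotoxicity as loss of cell viability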
[8] = biological target: T2, Microphthalmia-associated transcription factor (Homo sapiens, UniProt O75030); test: TRPM1 promoter luciferase signal decrease, dose response, MITF inhibitor project, cell-based, SK-MEL-5, cherry-picked, set 3 (AID 493073); assay type: functional
T2 sequence (O75030 whole entry): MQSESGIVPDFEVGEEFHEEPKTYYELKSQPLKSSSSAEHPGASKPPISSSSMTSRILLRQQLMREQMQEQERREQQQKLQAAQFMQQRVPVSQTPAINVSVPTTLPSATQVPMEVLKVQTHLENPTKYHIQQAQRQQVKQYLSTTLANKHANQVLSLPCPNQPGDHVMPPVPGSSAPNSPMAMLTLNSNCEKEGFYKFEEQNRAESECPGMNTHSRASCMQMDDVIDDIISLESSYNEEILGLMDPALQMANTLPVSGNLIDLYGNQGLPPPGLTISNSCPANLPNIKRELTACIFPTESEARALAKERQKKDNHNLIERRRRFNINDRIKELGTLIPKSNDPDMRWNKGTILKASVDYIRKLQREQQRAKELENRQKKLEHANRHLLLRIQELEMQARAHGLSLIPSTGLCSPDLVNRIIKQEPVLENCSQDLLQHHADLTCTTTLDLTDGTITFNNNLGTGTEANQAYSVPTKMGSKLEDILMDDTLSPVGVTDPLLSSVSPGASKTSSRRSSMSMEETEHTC

[9] = test system: A-375; test: MITF: Counter assay: A375 proliferation Measured in Cell-Based System Using Plate Reader - 2084-03_Inhibitor_Dose_DryPowder_Activity. [Related pubchem assays (depositor defined):AID488944]; assay type: functional; conditions: Homo sapiens
[10] = test system: A-375; test: A375 melanoma cell viability reduction, dose response, counter-screen for MITF modulator project, cherry-pick samples, set 2 (AID 540335); assay type: functional, cell-based; conditions: Homo sapiens
[11] = inhibitors of HIV Env-driven cell fusion, dose response, cherry-pick (AID 652057); assay type: functional, cell-based
[12] = ZM109 Env clade C HIV-1 fusion inhibitors, dose response, HeLa effector, CEM target cells, luciferase, cherry-pick (AID 652058); assay type: functional, cell-based
[13] = off-target signal loss in HeLa-CEM21 co-culture – HeLa F-luc CTL cells, cherry-picked, counter-screen for HIV-1 Env fusion inhibitor project, dose response (AID 652040); assay type: functional, cell-based;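 also: potency for signal decrease marking cytotoxic or nonspecific inhibition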
[14] = inhibitors of clade B AD8 Env fusion, dose response, cell-based, cherry-pick (AID 652062); assay type: functional;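 also: luciferase signal from cell-cell fusion driven by HIV-1 clade B AD8 Env; potency is for inhibitors of fusion seen as a drop in luminescence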
[15] = biological target: T1, Luciferin 4-monooxygenase; test: firefly luciferase enzyme inhibitors, dose response, biochemical, luminescence (AID 1891)
[16] = Luminescence Cell-Based Dose Confirmation HTS to Identify Inhibitors of Platelet Dense Granule Release. [Related pubchem assays: 1663 (Primary HTS), 1678 (Summary of Project)]; assay type: functional
[17] = test system: HeLa; test: HeLa cell cytotoxicity, dose response, cytotoxicity control for MITF activator project, CellTiter-Glo luminescence, cherry-pick samples (AID 540259); assay type: functional, cell-based; conditions: Homo sapiens
[18] = test system: HEK293; test: cells; assay type: functional, cell-based; conditions: Homo sapiens
[19] = biological target: Nuclear receptor subfamily 0 group B member 1 (Homo sapiens, UniProt P51843); test: Luminescence-based cell-based high throughput dose response assay for inhibitors of the orphan nuclear receptor subfamily 0, group B, member 1 (DAX1; NR0B1). [Related pubchem assays (depositor defined):AID504766, AID504790]; assay type: functional
[20] = biological target: T3, DNA repair and recombination protein RAD54-like (Homo sapiens, UniProt Q92698); test: inhibitors of human RAD54 branch migration, confirmation, biochemical, fluorescence, cherry-picked samples, dose series (AID 651657); assay type: functional
T3 sequence (Q92698 whole entry): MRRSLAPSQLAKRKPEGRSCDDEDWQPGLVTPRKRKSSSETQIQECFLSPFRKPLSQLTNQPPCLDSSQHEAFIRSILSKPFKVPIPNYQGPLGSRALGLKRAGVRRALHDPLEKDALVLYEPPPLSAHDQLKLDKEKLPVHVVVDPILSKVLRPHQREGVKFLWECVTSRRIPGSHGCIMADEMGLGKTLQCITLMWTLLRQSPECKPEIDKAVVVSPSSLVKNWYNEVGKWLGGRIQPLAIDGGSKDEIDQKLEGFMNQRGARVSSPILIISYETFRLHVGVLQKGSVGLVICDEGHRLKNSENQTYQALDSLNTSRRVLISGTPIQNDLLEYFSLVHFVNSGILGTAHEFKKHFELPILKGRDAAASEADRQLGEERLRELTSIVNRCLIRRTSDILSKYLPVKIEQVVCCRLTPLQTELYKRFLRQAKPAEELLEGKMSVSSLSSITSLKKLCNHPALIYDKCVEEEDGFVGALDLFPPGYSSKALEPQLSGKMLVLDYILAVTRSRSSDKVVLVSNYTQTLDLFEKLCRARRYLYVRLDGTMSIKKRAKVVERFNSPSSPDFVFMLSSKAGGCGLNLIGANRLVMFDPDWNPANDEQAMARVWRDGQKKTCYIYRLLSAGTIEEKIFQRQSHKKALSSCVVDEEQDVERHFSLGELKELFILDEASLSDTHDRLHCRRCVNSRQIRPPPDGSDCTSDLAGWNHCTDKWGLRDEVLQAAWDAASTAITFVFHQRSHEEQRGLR

[21] = test system: Streptococcus sp. 'group A'; test: growth inhibition of control SK(-) GAS strain, dose response, counter-screen for streptokinase expression inhibitor project, luminescence, kanamycin, BacTiterGlo, confirmation (AID 1900); assay type: functional, organism-based
[22] = biological target: T4, Streptokinase A (Streptococcus pyogenes serotype M1, UniProt P10520); test: S. pyogenes streptokinase expression inhibitors, potency, dose response, plasminogen activation absorbance, OD405 (AID 1914); assay type: functional, Streptococcus pyogenes M1 GAS;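 also: secreted streptokinase activity via plasminogen activation per viability signal from cell pellet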
T4 sequence (P10520 whole entry): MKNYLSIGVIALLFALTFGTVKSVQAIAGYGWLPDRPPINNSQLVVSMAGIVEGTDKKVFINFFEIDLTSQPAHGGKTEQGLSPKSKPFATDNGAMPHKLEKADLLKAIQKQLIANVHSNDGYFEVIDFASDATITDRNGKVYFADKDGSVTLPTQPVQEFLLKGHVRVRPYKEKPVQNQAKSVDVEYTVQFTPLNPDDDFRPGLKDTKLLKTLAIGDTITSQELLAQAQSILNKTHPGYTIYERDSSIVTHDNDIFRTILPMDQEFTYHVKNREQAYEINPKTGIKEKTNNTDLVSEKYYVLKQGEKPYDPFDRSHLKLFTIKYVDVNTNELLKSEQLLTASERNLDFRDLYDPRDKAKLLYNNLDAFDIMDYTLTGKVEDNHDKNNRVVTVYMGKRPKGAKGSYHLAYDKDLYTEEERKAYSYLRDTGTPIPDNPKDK

[23] = test system: Streptococcus; test: Group A Streptococcus viability loss, dose response, counter-screen for streptokinase expression inhibitor project, luminescence, BacTiterGlo (AID 1915); assay type: functional, organism-based;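 also: potency for reduction of bacterial viability or growth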
[24] = biological target: Cysteine protease ATG4B (Homo sapiens, UniProt Q9Y4P1); assay type: functional;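 also: Fluorescence-based dose-response confirmation assay measuring inhibition of ATG4B activity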
[25] = biological target: Phospholipase A2 (Homo sapiens, UniProt P04054); assay type: functional;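 also: confirmatory dose-response counterscreen on phospholipase A2, testing hits that came from an ultra-high-throughput screen for ATG4B inhibitors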
[26] = Luminescence Cell-Based Dose Retest to Confirm Inhibitors of Cancer Stem Cells. [Related pubchem assays (depositor defined):AID2717, AID2721]; assay type: functional; conditions: Homo sapiens
[27] = cytotoxicity in HMLE control line with eGFP shRNA, dose response, counter-screen for HMLE_sh_ECad selective toxicity project, cell-based, HMLE_sh_eGFP, luminescence (AID 463074); assay type: functional, Homo sapiens;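 also: HMLE human mammary epithelial cells expressing control shRNA against eGFP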
[28] = test system: Candida albicans; test: growth inhibition of resistant C. albicans, dose response, CaCi-8 strain, fluconazole, dry powder, set 4 (AID 488950); assay type: functional, organism-based
[29] = test system: Candida albicans; test: fluconazole resistance reversal in C. albicans, dose response, CaCi-2 strain, Alamar Blue, dry powder, set 4 (AID 488943); assay type: functional, organism-based
[30] = test system: Candida albicans; test: growth inhibition of resistant C. albicans, dose response, CaCi-8, fluconazole, Alamar Blue, dry powder (AID 488807); assay type: functional, organism-based
[31] = biological target: Hexokinase-1 (Homo sapiens, UniProt P19367); test: SAR analysis of small molecule inhibitors of hexokinase domain containing I (HKDC1) in the hexokinase 1 selectivity assay. [Related pubchem assays (depositor defined):AID493160, AID493190]; assay type: functional
[32] = biological target: Hexokinase HKDC1 (Homo sapiens, UniProt Q2TB90); test: SAR analysis of small molecule inhibitors of hexokinase domain containing I (HKDC1). [Related pubchem assays (depositor defined):AID493160, AID493190]; assay type: functional
[33] = biological target: T5, Short transient receptor potential channel 4 (Mus musculus, UniProt Q9QUQ5); test: TRPC4 inhibitor concentration-response, dose response, cell-based, HEK293 TRPC4/mu-opioid, DAMGO stimulus, Fluo-4 (AID 492994); assay type: functional
T5 sequence (Q9QUQ5 whole entry): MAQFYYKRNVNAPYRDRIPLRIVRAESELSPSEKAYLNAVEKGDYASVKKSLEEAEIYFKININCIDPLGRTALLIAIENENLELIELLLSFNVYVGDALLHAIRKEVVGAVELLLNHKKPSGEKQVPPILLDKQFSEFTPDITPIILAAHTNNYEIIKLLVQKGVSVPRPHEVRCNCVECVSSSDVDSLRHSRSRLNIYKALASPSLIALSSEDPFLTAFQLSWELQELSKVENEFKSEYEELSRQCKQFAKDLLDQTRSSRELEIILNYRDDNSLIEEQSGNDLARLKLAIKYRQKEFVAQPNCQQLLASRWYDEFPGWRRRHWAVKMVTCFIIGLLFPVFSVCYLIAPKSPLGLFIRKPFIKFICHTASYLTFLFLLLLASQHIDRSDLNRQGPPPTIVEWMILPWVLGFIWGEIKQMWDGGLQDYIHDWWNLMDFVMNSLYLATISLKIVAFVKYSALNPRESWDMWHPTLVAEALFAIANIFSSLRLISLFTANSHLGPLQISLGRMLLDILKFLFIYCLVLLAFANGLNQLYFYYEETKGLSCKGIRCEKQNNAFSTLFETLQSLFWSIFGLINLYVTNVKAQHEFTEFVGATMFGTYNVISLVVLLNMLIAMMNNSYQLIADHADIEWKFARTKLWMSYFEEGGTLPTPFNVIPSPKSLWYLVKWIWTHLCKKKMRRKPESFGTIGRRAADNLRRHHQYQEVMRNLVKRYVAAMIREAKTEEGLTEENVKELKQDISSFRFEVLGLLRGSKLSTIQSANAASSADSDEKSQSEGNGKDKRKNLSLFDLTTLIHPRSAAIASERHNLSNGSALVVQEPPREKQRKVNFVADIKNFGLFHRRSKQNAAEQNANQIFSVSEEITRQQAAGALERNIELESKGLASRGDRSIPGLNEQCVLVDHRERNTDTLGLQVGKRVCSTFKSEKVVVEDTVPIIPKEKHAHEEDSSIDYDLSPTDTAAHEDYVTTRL

T1 sequence (P08659 whole entry): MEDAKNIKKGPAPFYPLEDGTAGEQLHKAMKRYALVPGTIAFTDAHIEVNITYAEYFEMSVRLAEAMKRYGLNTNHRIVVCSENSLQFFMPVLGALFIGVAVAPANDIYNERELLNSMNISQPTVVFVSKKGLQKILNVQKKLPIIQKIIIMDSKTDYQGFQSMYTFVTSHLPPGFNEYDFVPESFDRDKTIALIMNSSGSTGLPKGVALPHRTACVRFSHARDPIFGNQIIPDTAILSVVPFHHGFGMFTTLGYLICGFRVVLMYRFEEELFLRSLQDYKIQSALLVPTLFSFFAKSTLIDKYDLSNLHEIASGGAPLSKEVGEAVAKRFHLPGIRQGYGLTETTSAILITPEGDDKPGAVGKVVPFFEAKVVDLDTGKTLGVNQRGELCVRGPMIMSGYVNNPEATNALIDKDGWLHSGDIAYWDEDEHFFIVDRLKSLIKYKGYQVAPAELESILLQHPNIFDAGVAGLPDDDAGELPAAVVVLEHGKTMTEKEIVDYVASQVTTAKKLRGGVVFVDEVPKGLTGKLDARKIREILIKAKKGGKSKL
Chain of Hexokinase HKDC1 (Q2TB90 whole entry, the tested form may be a part): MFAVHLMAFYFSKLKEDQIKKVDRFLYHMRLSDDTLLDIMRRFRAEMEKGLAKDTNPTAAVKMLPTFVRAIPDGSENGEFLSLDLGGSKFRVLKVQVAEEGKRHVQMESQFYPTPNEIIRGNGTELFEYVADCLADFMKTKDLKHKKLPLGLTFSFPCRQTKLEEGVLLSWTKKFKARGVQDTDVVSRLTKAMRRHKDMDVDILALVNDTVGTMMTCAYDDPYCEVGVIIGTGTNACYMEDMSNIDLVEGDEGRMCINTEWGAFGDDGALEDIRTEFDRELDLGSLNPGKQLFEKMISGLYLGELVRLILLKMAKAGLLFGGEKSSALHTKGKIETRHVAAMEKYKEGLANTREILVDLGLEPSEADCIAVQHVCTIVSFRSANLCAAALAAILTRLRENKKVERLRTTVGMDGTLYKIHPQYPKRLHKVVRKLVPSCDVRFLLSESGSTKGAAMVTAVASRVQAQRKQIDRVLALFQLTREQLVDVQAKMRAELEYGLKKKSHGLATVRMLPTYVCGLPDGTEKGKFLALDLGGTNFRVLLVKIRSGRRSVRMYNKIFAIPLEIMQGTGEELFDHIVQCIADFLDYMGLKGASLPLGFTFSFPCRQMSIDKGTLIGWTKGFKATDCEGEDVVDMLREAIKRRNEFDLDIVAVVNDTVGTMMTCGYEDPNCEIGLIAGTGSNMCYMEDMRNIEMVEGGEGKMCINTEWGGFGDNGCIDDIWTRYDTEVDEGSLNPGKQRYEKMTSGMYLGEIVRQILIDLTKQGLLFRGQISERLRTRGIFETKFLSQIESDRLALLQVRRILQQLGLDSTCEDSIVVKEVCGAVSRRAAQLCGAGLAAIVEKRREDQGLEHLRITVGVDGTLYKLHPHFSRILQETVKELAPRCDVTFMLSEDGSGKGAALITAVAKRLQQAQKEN
Chain of Type-1 angiotensin II receptor (P30556 whole entry): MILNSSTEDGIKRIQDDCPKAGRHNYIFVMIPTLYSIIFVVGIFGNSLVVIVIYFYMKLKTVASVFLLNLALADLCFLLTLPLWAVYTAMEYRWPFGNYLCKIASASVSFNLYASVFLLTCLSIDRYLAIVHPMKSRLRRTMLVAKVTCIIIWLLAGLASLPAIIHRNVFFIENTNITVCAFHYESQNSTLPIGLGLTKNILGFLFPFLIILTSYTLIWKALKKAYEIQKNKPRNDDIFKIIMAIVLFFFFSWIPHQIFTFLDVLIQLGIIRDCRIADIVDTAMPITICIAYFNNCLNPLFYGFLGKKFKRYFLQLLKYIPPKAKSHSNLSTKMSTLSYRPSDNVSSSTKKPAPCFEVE
Chain of Cysteine protease ATG4B (Q9Y4P1 whole entry): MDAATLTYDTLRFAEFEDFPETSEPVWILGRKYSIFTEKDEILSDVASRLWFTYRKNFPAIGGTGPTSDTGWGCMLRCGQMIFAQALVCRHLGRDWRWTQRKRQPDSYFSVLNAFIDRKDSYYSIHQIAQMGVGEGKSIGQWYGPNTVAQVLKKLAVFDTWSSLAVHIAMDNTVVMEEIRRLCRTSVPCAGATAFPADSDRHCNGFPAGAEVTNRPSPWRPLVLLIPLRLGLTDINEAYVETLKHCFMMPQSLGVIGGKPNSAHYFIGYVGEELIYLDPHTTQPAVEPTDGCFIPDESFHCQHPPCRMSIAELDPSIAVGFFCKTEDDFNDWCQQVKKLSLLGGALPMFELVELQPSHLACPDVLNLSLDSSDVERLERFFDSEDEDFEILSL
Chain of Cytochrome P450 3A4 (P08684 whole entry): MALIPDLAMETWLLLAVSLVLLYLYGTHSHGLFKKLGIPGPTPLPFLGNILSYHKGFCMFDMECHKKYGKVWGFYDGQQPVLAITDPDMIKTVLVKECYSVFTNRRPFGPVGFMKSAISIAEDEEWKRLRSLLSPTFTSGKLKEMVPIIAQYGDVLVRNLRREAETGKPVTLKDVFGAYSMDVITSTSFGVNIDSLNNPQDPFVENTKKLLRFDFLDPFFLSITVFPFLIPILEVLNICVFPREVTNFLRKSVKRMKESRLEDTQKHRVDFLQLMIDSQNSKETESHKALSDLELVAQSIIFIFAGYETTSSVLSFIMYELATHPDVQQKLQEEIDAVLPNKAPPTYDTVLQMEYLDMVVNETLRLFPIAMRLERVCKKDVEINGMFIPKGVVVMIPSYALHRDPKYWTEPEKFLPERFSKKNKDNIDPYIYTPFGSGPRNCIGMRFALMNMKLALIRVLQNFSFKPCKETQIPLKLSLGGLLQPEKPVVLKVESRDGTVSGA
Chain of Beta-galactosidase (Q8VNN2 whole entry): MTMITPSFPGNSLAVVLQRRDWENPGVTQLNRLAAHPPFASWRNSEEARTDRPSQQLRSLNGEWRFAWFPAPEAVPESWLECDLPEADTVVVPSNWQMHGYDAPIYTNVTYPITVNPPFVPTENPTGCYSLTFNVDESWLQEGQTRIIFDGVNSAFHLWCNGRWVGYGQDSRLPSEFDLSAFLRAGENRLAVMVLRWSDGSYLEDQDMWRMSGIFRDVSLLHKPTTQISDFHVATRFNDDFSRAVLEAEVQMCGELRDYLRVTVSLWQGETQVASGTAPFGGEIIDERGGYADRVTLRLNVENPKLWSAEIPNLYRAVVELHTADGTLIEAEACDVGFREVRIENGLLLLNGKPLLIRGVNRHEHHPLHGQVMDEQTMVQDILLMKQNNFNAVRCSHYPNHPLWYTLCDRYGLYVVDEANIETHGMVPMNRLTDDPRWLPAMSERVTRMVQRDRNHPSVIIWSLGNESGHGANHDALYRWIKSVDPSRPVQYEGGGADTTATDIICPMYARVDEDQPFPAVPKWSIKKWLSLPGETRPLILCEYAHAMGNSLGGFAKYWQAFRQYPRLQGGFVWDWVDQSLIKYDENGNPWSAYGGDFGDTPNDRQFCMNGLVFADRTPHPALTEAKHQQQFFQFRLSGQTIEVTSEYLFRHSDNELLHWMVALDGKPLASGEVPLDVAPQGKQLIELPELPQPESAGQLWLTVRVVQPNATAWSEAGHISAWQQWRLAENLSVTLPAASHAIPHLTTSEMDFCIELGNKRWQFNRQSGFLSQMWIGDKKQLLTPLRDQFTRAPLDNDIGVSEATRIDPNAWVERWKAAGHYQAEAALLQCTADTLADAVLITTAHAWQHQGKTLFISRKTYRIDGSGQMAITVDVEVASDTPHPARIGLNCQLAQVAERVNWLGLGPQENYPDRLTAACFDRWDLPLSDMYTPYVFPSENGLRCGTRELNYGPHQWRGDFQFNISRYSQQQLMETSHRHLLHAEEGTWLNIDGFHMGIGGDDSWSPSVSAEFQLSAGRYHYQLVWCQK
Chain of Phospholipase A2 (P04054 whole entry): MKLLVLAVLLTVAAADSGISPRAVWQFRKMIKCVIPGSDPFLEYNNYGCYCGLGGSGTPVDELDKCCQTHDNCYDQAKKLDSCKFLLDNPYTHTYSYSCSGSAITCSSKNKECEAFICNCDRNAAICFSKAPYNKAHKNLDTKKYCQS
Chain of Hexokinase-1 (P19367 whole entry, the tested form may be a part): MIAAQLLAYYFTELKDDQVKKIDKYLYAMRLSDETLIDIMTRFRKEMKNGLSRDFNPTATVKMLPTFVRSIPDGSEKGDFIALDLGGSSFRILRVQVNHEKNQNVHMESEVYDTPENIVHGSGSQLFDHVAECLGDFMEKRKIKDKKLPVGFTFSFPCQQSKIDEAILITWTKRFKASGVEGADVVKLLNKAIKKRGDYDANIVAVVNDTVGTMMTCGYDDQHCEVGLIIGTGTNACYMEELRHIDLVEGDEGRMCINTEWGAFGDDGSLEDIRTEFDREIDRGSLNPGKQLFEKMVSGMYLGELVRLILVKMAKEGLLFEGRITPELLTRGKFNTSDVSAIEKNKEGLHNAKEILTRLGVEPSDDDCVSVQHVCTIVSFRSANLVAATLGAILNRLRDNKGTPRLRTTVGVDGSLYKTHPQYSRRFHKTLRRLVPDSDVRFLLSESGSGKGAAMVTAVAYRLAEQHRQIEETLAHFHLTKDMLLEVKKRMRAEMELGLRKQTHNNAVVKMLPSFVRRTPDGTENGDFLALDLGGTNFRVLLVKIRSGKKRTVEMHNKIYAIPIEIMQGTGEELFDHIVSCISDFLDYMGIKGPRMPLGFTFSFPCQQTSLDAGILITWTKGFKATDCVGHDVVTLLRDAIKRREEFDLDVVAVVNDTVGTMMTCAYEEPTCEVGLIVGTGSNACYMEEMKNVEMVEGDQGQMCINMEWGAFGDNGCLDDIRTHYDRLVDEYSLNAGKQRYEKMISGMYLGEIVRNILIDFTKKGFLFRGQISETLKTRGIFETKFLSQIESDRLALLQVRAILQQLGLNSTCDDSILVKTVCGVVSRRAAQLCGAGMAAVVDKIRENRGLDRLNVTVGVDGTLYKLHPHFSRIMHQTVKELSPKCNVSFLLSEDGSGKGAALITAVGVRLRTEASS

O=C(c1cc(C(F)(F)F)cc(C(F)(F)F)c1)N1CCC2(CC1)CN(c1ccccc1)C2
AC50 [1]: inconclusive

CN(C)c1ccc(/C=C2\N=C(c3ccc(Cl)c([N+](=O)[O-])c3)NC2=O)cc1
EC50 [2]: > 40 µM (inactive)
IC50 [3]: > 40 µM (not active)

CC(C)(C)c1ccc(C(=O)N2CCCCCC2=O)cc1
EC50 [4]: 1.5 µM (active)
EC50 [5]: > 50 µM (not active)
IC50 [6]: 0.38 µM (active)
IC50 [7]: > 80 µM (inactive)
AC50 [8]: 1.12 µM (active)
AC50 [9]: > 35 µM (active)
AC50 [10]: > 35 µM (active)
AC50 [11]: 2.77 µM (active)
AC50 [12]: 0.611 µM (active)
AC50 [13]: 1.73 µM (active)
AC50 [14]: 4.27 µM (active)

COc1ccc(C(=O)Nc2cc(OC)nc(OC)n2)cc1
EC50 [15]: 16.3 µM (active)
EC50 [16]: 8.79 µM (active)
AC50 [17]: 178 µM (active)

CCN(CC)CCCNC(=O)c1cc2c(=O)n(C)c3ccccc3c2n1C
IC50 [18]: > 67.5 µM (inactive)
IC50 [19]: > 67.5 µM (inactive)
AC50 [20]: 26.9 µM (active)

CSc1nnc2nc3c(c(O)n12)C1(CCCCC1)Cc1ccccc1-3
EC50 [21]: 7.86 µM (active)
EC50 [22]: > 150 µM (not active)
EC50 [23]: 123 µM (active)
IC50 [24]: 7.09 µM (active)
IC50 [25]: 5.6 µM (active)

CN(c1ccccc1)c1ccc(/C=C(\C#N)c2nnc3n2CCCCC3)cc1[N+](=O)[O-]
AC50 [26]: 0.597 µM (active)
AC50 [27]: 24.3 µM (active)

O=C(c1ccc(Cl)cc1)N1CCN(c2ccc(Cl)cc2)CC1
AC50 [28]: 5.25 µM (active)
AC50 [29]: 4.76 µM (active)
AC50 [30]: 0.375 µM (active)

N#Cc1ccc(CSc2nnc(NC(=O)c3ccncc3)s2)cc1
IC50 [31]: > 80 µM (inactive)
IC50 [32]: > 80 µM (inactive)

COCCN(C)c1cc(C)c2ccccc2n1
IC50 [33]: 20.8 µM (active)
